Results as given in article PMC11484942, “Rumicidins are a family of mammalian host-defense peptides plugging the 70S ribosome exit tunnel” (Nature Communications, 2024).

Key:
Monocytes = experiment: Cytokine response, multiplex xMAP; assay type: cell-based, human; conditions: 2 µM peptide, 24 h
Description: The acute monocytic leukemia THP-1 cell line (ATCC TIB-202) was cultured in the complete RPMI 1640 medium (Invitrogen) containing 10% FBS, 1× antibiotic-antimycotic solution (Invitrogen), and 0.05 mM β-mercaptoethanol, in the CO2-incubator (5% CO2, 37 °C). THP-1 cells were differentiated into proinflammatory macrophages (MΦ1) according to the previously reported protocol. Primary peripheral blood mononuclear cells (PBMC) collected from a healthy donor were purchased from ATCC (PCS-800-011), thawed, and seeded into a 96-well plate one day prior to the experiment at a density of 2 × 10^5 cells/well. Two different cell subpopulations (monocytes and T-/B-/NK-lymphocytes) were isolated from PBMC based on their adherence ability. Macrophages MΦ1 were washed out and seeded into 96-well plates at a density of 10^5 cells/well one day prior to the experiment. The next day, medium in each well was replaced by a fresh complete RPMI 1640 medium with or without 2 μM of a tested peptide (rumicidin-1 or LL-37). Cell cultures were kept in a CO2-incubator (5% CO2, 37 °C) for 24 h. Culture supernatants were collected 24 h later and stored at −70 °C degrees less than one week prior to the assessment of analytes. 26 analytes were measured at a protein level by multiplex xMAP technology using the MILLIPLEX MAP Human Cytokine/Chemokine Magnetic Bead Immunology Panel kit (HCYTOMAG-60K-27, Merck): eotaxin-1/CCL11, TGFα, GM-CSF, IFNα2, IFNγ, IL-10, IL-12p40, IL-12p70, IL-15, sCD40L, IL-17A, IL-1RA, IL-1α, IL-9, IL-1β, IL-2, IL-3, IL-4, IL-5, IL-6, IL-7, IL-8/CXCL8, IP-10/CXCL10, RANTES/CCL5, TNFα, TNFβ. Multiplex-based assay read-out was performed using the MAGPIX system (Merck) with the xPONENT 4.2 software (Merck) in accordance with the manufacturer’s instruction with overnight incubation of the samples with primary antibodies. The final analysis was carried out with the MILLIPLEX Analyst v5.1 software (Merck). Measurements were performed twice for each sample. The release of the analytes in control and experimental samples were compared by unpaired two-sample t-test using GraphPad Prism v.8.0.1. The p values ≤ 0.05 were considered significant.

E. coli 1057 WT = experiment: microbe, parasite or virus in culture; assay type: cell-based, Escherichia coli; conditions: MHB + 0.9% NaCl
Description: Minimum inhibitory concentrations (MIC) were determined by broth microdilution assay based on Clinical and Laboratory Standards Institute (CLSI) guidelines using BSA in the growth medium to minimize AMP nonspecific adsorption[49]. Bacterial test cultures were grown in the Mueller-Hinton broth (MHB, Sigma) at 37 °C to mid-log phase and then diluted with the 2× MH medium supplemented with 1.8% NaCl (or without salt) so that to reach a final cell concentration of 10^6 CFU/mL. 50 µL of the obtained bacterial suspension were added to aliquots of 50 µL of the peptide solutions serially diluted with sterilized 0.1% bovine serum albumin (BSA) in 96-well flat-bottom polystyrene microplates (Eppendorf #0030730011). […] To verify MIC values, the respiratory activity of the bacteria was determined. Briefly, 5 µL of 0.5 mg/mL resazurin (Sigma) was added to the wells after 24 h (or after 48 h for M. smegmatis) of incubation, and the plate was incubated for additional 3 h. In some cases, MICs were determined in the Lysogeny Broth (LB) or Middlebrook 7H9 medium. The reduction of resazurin to resorufin was recorded. […] The results were expressed as the median values determined based on at least three independent experiments performed in triplicate.

[1] = system: E. coli 1057 R2 (rpoS^Q3stop, macB^N470D); conditions: MHB + 0.9% NaCl
How it was run: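 Broth microdilution (CLSI-based) used 10^6 CFU/mL mid-log cells in MHB with or without added NaCl, and peptides serially diluted in 0.1% BSA at 37 °C. Resistance induction used daily serial passage from sub-MIC wells, followed by 3 drug-free passages before the final MIC.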

Caco-2 cells = experiment: Cytokine response, multiplex xMAP; assay type: cell-based, human; conditions: 2 µM peptide, 24 h

SMILES: CC[C@H](C)[C@H](NC(=O)[C@H](CCCCN)NC(=O)[C@H](CCC(=O)O)NC(=O)[C@H](CCCCN)NC(=O)[C@H](CO)NC(=O)[C@H](CCCCN)NC(=O)[C@H](CCCNC(=N)N)NC(=O)[C@H](Cc1ccccc1)NC(=O)[C@H](Cc1ccccc1)NC(=O)[C@H](CC(=O)O)NC(=O)CNC(=O)[C@H](CC(C)C)NC(=O)[C@@H](N)CC(C)C)C(=O)NCC(=O)N[C@@H](CCCCN)C(=O)N[C@@H](CCC(=O)O)C(=O)N[C@@H](Cc1ccccc1)C(=O)N[C@@H](CCCCN)C(=O)N[C@@H](CCCNC(=N)N)C(=O)N[C@H](C(=O)N[C@H](C(=O)N[C@@H](CCC(N)=O)C(=O)N[C@@H](CCCNC(=N)N)C(=O)N[C@H](C(=O)N[C@@H](CCCCN)C(=O)N[C@@H](CC(=O)O)C(=O)N[C@@H](Cc1ccccc1)C(=O)N[C@@H](CC(C)C)C(=O)N[C@@H](CCCNC(=N)N)C(=O)N[C@@H](CC(N)=O)C(=O)N[C@@H](CC(C)C)C(=O)N[C@H](C(=O)N1CCC[C@H]1C(=O)N[C@@H](CCCNC(=N)N)C(=O)N[C@H](C(=O)N[C@@H](CCC(=O)O)C(=O)N[C@@H](CO)C(=O)O)[C@@H](C)O)C(C)C)[C@@H](C)CC)C(C)C)[C@@H](C)CC [LL-37]
- GM-CSF (Monocytes): 3,08 pg/ml
- IFNa2 (Monocytes): 34,74 pg/ml
- IFNg (Monocytes): 38,2 pg/ml
- IL-1RA (Monocytes): 168,96 pg/ml
- IL-1a (Monocytes): < 1.13 pg/mL
- IL-1b (Monocytes): < 2.88 pg/mL
- IL-2 (Monocytes): < 2.73 pg/mL
- IL-3 (Monocytes): 3,38 pg/ml
- IL-5 (Monocytes): < 2.74 pg/mL
- IL-6 (Monocytes): < 2.42 pg/mL
- IL-7 (Monocytes): 8,54 pg/ml
- IL-8 (Monocytes): 755,68 pg/ml
- IL-9 (Monocytes): < 3.08 pg/mL
- IL-10 (Monocytes): 4,1 pg/ml
- IL-12p40 (Monocytes): 17,59 pg/ml
- IL-12p70 (Monocytes): 5,7 pg/ml
- IL-15 (Monocytes): 4,8 pg/ml
- IP-10 (Monocytes): 897,33 pg/ml
- RANTES (Monocytes): 312,51 pg/ml
- TGF-a (Monocytes): < 2.64 pg/mL
- TNFa (Monocytes): 6,47 pg/ml
- TNFb (Monocytes): < 2.85 pg/mL
- sCD40L (Monocytes): 20,8 pg/ml
- MIC (E. coli 1057 WT): 2 µM
- MIC [1]: 2 µM
- Eotaxin (Caco-2 cells): < 2.04 pg/mL
- GM-CSF (Caco-2 cells): 0,45 pg/ml
- IFNa2 (Caco-2 cells): 3,72 pg/ml
- IFNg (Caco-2 cells): < 1.31 pg/mL
- IL-1RA (Caco-2 cells): < 2.66 pg/mL
- IL-1a (Caco-2 cells): < 1.13 pg/mL
- IL-1b (Caco-2 cells): < 2.88 pg/mL
- IL-2 (Caco-2 cells): < 2.73 pg/mL
- IL-3 (Caco-2 cells): < 3.02 pg/mL
- IL-4 (Caco-2 cells): 43,73 pg/ml
- IL-5 (Caco-2 cells): < 2.74 pg/mL
- IL-6 (Caco-2 cells): < 2.42 pg/mL
- IL-7 (Caco-2 cells): < 2.06 pg/mL
- IL-8 (Caco-2 cells): 3,19 pg/ml
- IL-9 (Caco-2 cells): < 3.08 pg/mL
- IL-10 (Caco-2 cells): < 1.47 pg/mL
- IL-12p40 (Caco-2 cells): < 3.69 pg/mL
- IL-12p70 (Caco-2 cells): 0,29 pg/ml
- IL-15 (Caco-2 cells): < 2.08 pg/mL
- IL-17A (Caco-2 cells): < 0.94 pg/mL
- IP-10 (Caco-2 cells): 114,78 pg/ml
- RANTES (Caco-2 cells): 1050 pg/mL
- TGF-a (Caco-2 cells): < 2.64 pg/mL
- TNFa (Caco-2 cells): < 2.85 pg/mL
- TNFb (Caco-2 cells): < 2.85 pg/mL
- sCD40L (Caco-2 cells): 2,12 pg/ml
